ChEMBL document CHEMBL6096697, “Structure-Guided Discovery of Novel N4-(Substituted Thiazol-2-yl)-N2-(4-Substituted phenyl)pyrimidine-2,4-Diamines as Potent CDK2 and CDK9 Dual Inhibitors with High Oral Bioavailability” (J Med Chem, 2025)
Activity calls are given as the source filed them. The calls are words filed in the database; no cut-off is given here.

What was measured:
[1] = target: Cyclin-dependent kinase 2/cyclin A (Homo sapiens) (UniProt P24941+P20248+P78396); assay: Inhibition of CDK2/cyclin A (unknown origin) using […] at 1 uM incubated for 40 mins in presence of ATP by Kinase-Glo assay relative to control; type: protein-complex assay
[2] = target: Cyclin-dependent kinase 2/cyclin A (Homo sapiens, UniProt P24941); assay: Inhibition of CDK2/cyclin A (unknown origin) using […] incubated for 40 mins in presence of ATP by Kinase-Glo assay; type: protein-complex assay
HCT-116 [3] = assay: Cytotoxicity against human HCT-116 cells assessed as cell growth inhibition incubated for 48 hrs by MTT assay; type: functional, cell-based; settings: HCT-116, 48 h
[4] = Inhibition of CDK6/cyclin D (unknown origin) using […] incubated for 40 mins in presence of ATP by Kinase-Glo assay; set-up: species or system Homo sapiens
MV4-11 = assay: Antiproliferative activity against human MV4-11 cells assessed as cell growth inhibition incubated for 48 hrs by MTT assay; type: functional, cell-based; settings: MV4-11, 48 h
A2780 = assay: Antiproliferative activity against human A2780 cells assessed as cell growth inhibition incubated for 48 hrs by MTT assay; type: functional, cell-based; settings: A2780, 48 h
HCT-116 [5] = assay: Induction of cell cycle arrest in human HCT-116 cells assessed as accumulation at G1/G0 phase at 0.2 uM incubated for 24 hrs by PI staining based flow cytometry (reference value: 58.29 +/- 2.01 %); type: functional
HCT-116 [6] = assay: Induction of cell cycle arrest in human HCT-116 cells assessed as accumulation at sub-G1 phase at 0.4 uM incubated for 24 hrs by PI staining based flow cytometry (reference value: 2.45 +/- 0.49 %); type: functional
HCT-116 [7] = assay: Induction of cell cycle arrest in human HCT-116 cells assessed as accumulation at S phase at 0.4 uM incubated for 24 hrs by PI staining based flow cytometry (reference value: 20.82 +/- 1.24 %); type: functional
HeLa [8] = assay: Induction of cell cycle arrest in human HeLa cells assessed as accumulation at G1/G0 phase at 0.9 uM incubated for 24 hrs by PI staining based flow cytometry (reference value: 57.63 +/- 1.7 %); type: functional
HeLa [9] = assay: Induction of cell cycle arrest in human HeLa cells assessed as accumulation at S phase at 1.8 uM incubated for 24 hrs by PI staining based flow cytometry (reference value: 17.84 +/- 1.89 %); type: functional
HeLa [10] = assay: Induction of cell cycle arrest in human HeLa cells assessed as accumulation at sub-G1 phase at 3.6 uM incubated for 24 hrs by PI staining based flow cytometry (reference value: 1.89 +/- 0.56 %); type: functional
HeLa [11] = assay: Induction of cell cycle arrest in human HeLa cells assessed as accumulation at G2/M phase at 3.6 uM incubated for 24 hrs by PI staining based flow cytometry (reference value: 24.6 +/- 1.11 %); type: functional
HeLa [12] = assay: Induction of cell cycle arrest at G2/M phase in human HeLa cells assessed as decrease in p-Cdc2 level incubated for 48 hrs by Western blot analysis; type: functional, cell-based; settings: dose <= 3.6 µM
HCT-116 [13] = assay: Induction of cell cycle arrest at G2/M phase in human HCT-116 cells assessed as decrease in p-Cdc2 level at 0.4 uM by Western blot analysis; type: functional, cell-based; settings: time <= 48.0 hrs
HCT-116 [14] = assay: Induction of cell cycle arrest at G2/M phase in human HCT-116 cells assessed as decrease in cyclin B1 level at 0.4 uM by Western blot analysis; type: functional, cell-based; settings: time <= 48.0 hrs
HeLa [15] = assay: Induction of cell cycle arrest at G2/M phase in human HeLa cells assessed as decrease in p-Cdc2 level at 1.8 uM by Western blot analysis; type: functional, cell-based; settings: time <= 48.0 hrs
HCT-116 [16] = assay: Induction of apoptosis in human HCT-116 cells assessed as viable cells at 0.2 uM incubated for 24 hrs by PI staining based flow cytometry (reference value: 79.4 %); type: functional; settings: read-out: Activity
HCT-116 [17] = assay: Induction of apoptosis in human HCT-116 cells assessed as late apoptotic cells at 0.2 uM incubated for 24 hrs by PI staining based flow cytometry (reference value: 1.11 %); type: functional
HCT-116 [18] = assay: Induction of apoptosis in human HCT-116 cells assessed as late apoptotic cells at 0.4 uM incubated for 24 hrs by PI staining based flow cytometry (reference value: 1.11 %); type: functional
HeLa [19] = assay: Induction of apoptosis in human HeLa cells assessed as late apoptotic cells at 0.9 uM incubated for 24 hrs by PI staining based flow cytometry (reference value: 3.85 %); type: functional
HeLa [20] = assay: Induction of apoptosis in human HeLa cells assessed as viable cells at 1.8 uM incubated for 24 hrs by PI staining based flow cytometry (reference value: 68.9 %); type: functional; settings: read-out: Activity
HeLa [21] = assay: Induction of apoptosis in human HeLa cells assessed as early apoptotic cells at 1.8 uM incubated for 24 hrs by PI staining based flow cytometry (reference value: 0.8 %); type: functional
HeLa [22] = assay: Induction of apoptosis in human HeLa cells assessed as viable cells at 3.6 uM incubated for 24 hrs by PI staining based flow cytometry (reference value: 68.9 %); type: functional; settings: read-out: Activity
HeLa [23] = assay: Induction of apoptosis in human HeLa cells assessed as early apoptotic cells at 3.6 uM incubated for 24 hrs by PI staining based flow cytometry (reference value: 0.8 %); type: functional
HeLa [24] = assay: Induction of apoptosis in human HeLa cells assessed as late apoptotic cells at 3.6 uM incubated for 24 hrs by PI staining based flow cytometry (reference value: 3.85 %); type: functional
HeLa [25] = assay: Induction of apoptosis in human HeLa cells assessed as necrotic cells at 3.6 uM incubated for 24 hrs by PI staining based flow cytometry (reference value: 25.5 %); type: functional
HCT-116 [26] = assay: Induction of apoptosis in human HCT-116 cells assessed as total apoptotic cells at 0.8 uM incubated for 24 hrs by PI staining based flow cytometry (reference value: 1.30 %); type: functional
HCT-116 [27] = assay: Induction of apoptosis in human HCT-116 cells assessed as increase in p53 level upto 0.8 uM incubated for 24 hrs by Western blot analysis; type: functional, cell-based
HCT-116 [28] = assay: Induction of apoptosis in human HCT-116 cells assessed as decrease in Bcl-2 level upto 0.8 uM incubated for 24 hrs by Western blot analysis; type: functional, cell-based
HCT-116 [29] = assay: Induction of apoptosis in human HCT-116 cells assessed as increase in cleaved PARP level upto 0.8 uM incubated for 24 hrs by Western blot analysis; type: functional, cell-based
[30] = AUC (0 to infinity) in Sprague-Dawley rat at 2 mg/kg, iv measured for 36 hrs by MRM analysis; type: ADME, organism-based; settings: in vivo
[31] = Half life in Sprague-Dawley rat at 2 mg/kg, iv measured for 36 hrs by MRM analysis; type: ADME, organism-based; settings: in vivo
[32] = AUC (0 to infinity) in Sprague-Dawley rat at 10 mg/kg, po measured for 36 hrs by MRM analysis; type: ADME, organism-based; settings: in vivo
[33] = Tmax in Sprague-Dawley rat at 10 mg/kg, po measured for 36 hrs by MRM analysis; type: ADME, organism-based; settings: in vivo
[34] = Toxicity in Balb/c-nu nude mouse xenografted with human HCT-116 cells assessed as toxic reactions at 35 to 70 mg/kg/day, po treated for 30 days; type: organism-based; settings: in vivo, 720 h, dose 35-70 mg/kg/day, time 30 day

- inhibition [1]: 99.5%
- IC50 [2]: 4 nM
- IC50 [4]: 3250 nM
- IC50 (MV4-11): 121 nM
- IC50 (A2780): 22200 nM
- AUC(0-inf) [30]: 33.7 ng·h/mL
- half-life [31]: 4.5 h
- AUC(0-inf) [32]: 146 ng·h/mL
- Tmax [33]: 0.5 h
SMILES: Cc1cnc(Nc2ccc(S(N)(=O)=O)cc2)nc1Nc1nccs1
- IC50 (HCT-116 [3]): 462 nM
- Activity (HCT-116 [5]): 51.83%
- Activity (HCT-116 [6]): 1.91%
- Activity (HCT-116 [7]): 22.25%
- Activity (HeLa [8]): 52.88%
- Activity (HeLa [9]): 16.79%
- Activity (HeLa [10]): 19.5%
- Activity (HeLa [11]): 44.19%
- Activity (HeLa [12]): Dose-dependent-effect
- Activity (HCT-116 [13]): Time-dependent-effect
- Activity (HCT-116 [14]): Time-dependent-effect
- Activity (HeLa [15]): Time-dependent-effect
- viability at 0.2 µM (HCT-116 [16]): 63.1%
- Activity (HCT-116 [17]): 31.2%
- Activity (HCT-116 [18]): 22.9%
- Activity (HeLa [19]): 5%
- viability at 1.8 µM (HeLa [20]): 11.3%
- Activity (HeLa [21]): 62.6%
- viability at 3.6 µM (HeLa [22]): 11.7%
- Activity (HeLa [23]): 61%
- Activity (HeLa [24]): 27.3%
- Activity (HeLa [25]): 0.72%
- Activity (HCT-116 [26]): 43.2%
- Activity (HCT-116 [27]): Active
- Activity (HCT-116 [28]): Active
- Activity (HCT-116 [29]): Active
- Activity [34]: Non-toxic
